Results from patent US20240383899A1, “MODIFIED CARBAPENEM ANTIBIOTICS WITH IMPROVED ACTIVITY AGAINST KPC CARBAPENEMASE-PRODUCING ENTEROBACTERALES” (priority 2023, published 2024).
Values after ≈ are worked out from the molar mass of the structure shown. Read-outs that look alike come from different tables or passages of the source.

Columns and labels:
Assay in all cases: In vitro activity (MIC) against Gram-negative aerobic bacteria
Type in all cases: cell-based
[1] = test system: Klebsiella pneumoniae MMX 4683 (CDC ART2008030); ESBL, KPC-2
[2] = test system: Klebsiella pneumoniae MMX 4885; KPC
[3] = test system: Klebsiella pneumoniae MMX 6854; ESBL
[4] = test system: Enterobacter cloacae MMX 6089
[5] = test system: Citrobacter freundii MMX 6284
[6] = test system: Proteus mirabilis MMX 6442
[7] = test system: Serratia marcescens MMX 6462
[8] = test system: Acinetobacter baumannii ATCC 19606
[9] = test system: Acinetobacter baumannii MMX 2587; MDR
[10] = test system: Acinetobacter baumannii MMX 2599

C[C@@H](O)[C@H]1C(=O)N2C(C(=O)O)=C(S[C@@H]3CN[C@H](C(=O)N(C)C)C3)[C@H](C)[C@H]12 [MEM, meropenem]
MIC ([1]; read-out: MIC): > 8 µg/mL
MIC ([2]; read-out: MIC): > 8 µg/mL
MIC ([3]; read-out: MIC): 0.25 µg/mL (≈ 0.652 µM)
MIC ([4]; MMX6089, read-out: MIC): 0.06 µg/mL (≈ 0.156 µM)
MIC ([5]; MMX6284, read-out: MIC): > 8 µg/mL
MIC ([6]; MMX6442, read-out: MIC): 0.12 µg/mL (≈ 0.313 µM)
MIC ([7]; MMX6462, read-out: MIC): 0.25 µg/mL (≈ 0.652 µM)
MIC ([8]; ATCC19606, read-out: MIC): 2 µg/mL (≈ 5.22 µM)
MIC ([9]; read-out: MIC): > 8 µg/mL
MIC ([10]; MMX2599, read-out: MIC): 0.25 µg/mL (≈ 0.652 µM)

CN[C@H](CC(C)C)C(=O)N[C@H]1C(=O)N[C@@H](CC(N)=O)C(=O)N[C@H]2C(=O)N[C@H]3C(=O)N[C@H](C(=O)N[C@H](C(=O)O)c4cc(O)cc(O)c4-c4cc3ccc4O)[C@H](O)c3ccc(c(Cl)c3)Oc3cc2cc(c3O[C@@H]2O[C@H](CO)[C@@H](O)[C@H](O)[C@H]2O[C@H]2C[C@](C)(N)[C@H](O)[C@H](C)O2)Oc2ccc(cc2Cl)[C@H]1O [VAN, vancomycin]
MIC ([1]; read-out: MIC): > 32 µg/mL
MIC ([2]; read-out: MIC): > 32 µg/mL
MIC ([3]; read-out: MIC): > 32 µg/mL
MIC ([4]; MMX6089, read-out: MIC): > 32 µg/mL
MIC ([5]; MMX6284, read-out: MIC): > 32 µg/mL
MIC ([6]; MMX6442, read-out: MIC): > 32 µg/mL
MIC ([7]; MMX6462, read-out: MIC): > 32 µg/mL
MIC ([8]; ATCC19606, read-out: MIC): > 32 µg/mL
MIC ([9]; read-out: MIC): > 32 µg/mL
MIC ([10]; MMX2599, read-out: MIC): > 32 µg/mL

COc1c(N2C[C@@H]3CCCN[C@@H]3C2)c(F)cc2c(=O)c(C(=O)O)cn(C3CC3)c12 [MOX, moxifloxacin]
MIC ([1]; read-out: MIC): > 4 µg/mL
MIC ([2]; read-out: MIC): > 4 µg/mL
MIC ([3]; read-out: MIC): 0.5 µg/mL (≈ 1.25 µM)
MIC ([4]; MMX6089, read-out: MIC): 0.03 µg/mL (≈ 0.0747 µM)
MIC ([5]; MMX6284, read-out: MIC): > 4 µg/mL
MIC ([6]; MMX6442, read-out: MIC): 0.25 µg/mL (≈ 0.623 µM)
MIC ([7]; MMX6462, read-out: MIC): 0.12 µg/mL (≈ 0.299 µM)
MIC ([8]; ATCC19606, read-out: MIC): 0.25 µg/mL (≈ 0.623 µM)
MIC ([9]; read-out: MIC): > 4 µg/mL
MIC ([10]; MMX2599, read-out: MIC): 0.12 µg/mL (≈ 0.299 µM)

CC(C)(O/N=C(\C(=O)N[C@@H]1C(=O)N2C(C(=O)[O-])=C(C[n+]3ccccc3)CS[C@H]12)c1csc(N)n1)C(=O)O [CAZ, ceftazidime]
MIC ([1]; read-out: MIC): > 32 µg/mL
MIC ([2]; read-out: MIC): > 32 µg/mL
MIC ([3]; read-out: MIC): 0.5 µg/mL (≈ 0.915 µM)
MIC ([4]; MMX6089, read-out: MIC): 32 µg/mL (≈ 58.5 µM)
MIC ([5]; MMX6284, read-out: MIC): > 32 µg/mL
MIC ([6]; MMX6442, read-out: MIC): ≤ 0.03 µg/mL
MIC ([7]; MMX6462, read-out: MIC): 0.25 µg/mL (≈ 0.457 µM)
MIC ([8]; ATCC19606, read-out: MIC): 8 µg/mL (≈ 14.6 µM)
MIC ([9]; read-out: MIC): > 32 µg/mL
MIC ([10]; MMX2599, read-out: MIC): 8 µg/mL (≈ 14.6 µM)

Cc1ncc([N+](=O)[O-])n1CCO [MET, metronidazole]
MIC ([1]; read-out: MIC): > 32 µg/mL
MIC ([2]; read-out: MIC): > 32 µg/mL
MIC ([3]; read-out: MIC): > 32 µg/mL
MIC ([4]; MMX6089, read-out: MIC): > 32 µg/mL
MIC ([5]; MMX6284, read-out: MIC): > 32 µg/mL
MIC ([6]; MMX6442, read-out: MIC): > 32 µg/mL
MIC ([7]; MMX6462, read-out: MIC): > 32 µg/mL
MIC ([8]; ATCC19606, read-out: MIC): > 32 µg/mL
MIC ([9]; read-out: MIC): > 32 µg/mL
MIC ([10]; MMX2599, read-out: MIC): > 32 µg/mL

C[C@H](O)[C@H]1C(=O)N2C(C(=O)O)=C(S[C@@H]3CN[C@H](C(=O)N(C)C)C3)[C@H](C)[C@H]12 [JDB-1-200, (4R,5S,6S)-3-(((3S,5S)-5-(dimethylcarbamoyl)pyrrolidin-1-ium-3-yl)thio)-6-((S)-1-hydroxyethyl)-4-methyl-7-oxo-1-azabicyclo[3.2.0]hept-2-ene-2-carboxylate]
MIC ([1]; read-out: MIC): 1 µg/mL (≈ 2.61 µM)
MIC ([2]; read-out: MIC): 0.5 µg/mL (≈ 1.3 µM)
MIC ([3]; read-out: MIC): 0.5 µg/mL (≈ 1.3 µM)
MIC ([4]; MMX6089, read-out: MIC): 0.12 µg/mL (≈ 0.313 µM)
MIC ([5]; MMX6284, read-out: MIC): 1 µg/mL (≈ 2.61 µM)
MIC ([6]; MMX6442, read-out: MIC): 1 µg/mL (≈ 2.61 µM)
MIC ([7]; MMX6462, read-out: MIC): 0.5 µg/mL (≈ 1.3 µM)
MIC ([8]; ATCC19606, read-out: MIC): 0.5 µg/mL (≈ 1.3 µM)
MIC ([9]; read-out: MIC): 32 µg/mL (≈ 83.4 µM)
MIC ([10]; MMX2599, read-out: MIC): 0.12 µg/mL (≈ 0.313 µM)

colistin
MIC [1]: 0.12 µg/mL
MIC [2]: 8 µg/mL
MIC [3]: 0.25 µg/mL
MIC [4]: 0.12 µg/mL
MIC [5]: 0.12 µg/mL
MIC [6]: >32 µg/mL
MIC [7]: >32 µg/mL
MIC [8]: 0.5 µg/mL
MIC [9]: 1 µg/mL
MIC [10]: 2 µg/mL
